This is an account of results in patent US12065421B2, “Inhibitors of oplophorus luciferase-derived bioluminescent complexes” (priority 2018, dated 2024).

This assay has as its target T1, NanoBiT® HiBiT non-luminescent peptide and LgBiT non-luminescent polypeptide (HiBiT/LgBiT bioluminescent complex) (Oplophorus gracilirostris, UniProt Q9GV45, A31E/A60N/A81I/C191F/D135N/E192K/F58L/F95D/G184S/G42A/G62A/G78A/G94A/G98A/H120P/I103V/I117V/I134L/K70R/L176M/L195S/L54V/L73R/L99Q/M102E/N171T/N193K/P142E/Q151K/Q38E/Q45L/T186S/V71I/Y165I).
T1 construct: fused on or other part: N-terminal Met-Val on LgBiT in place of the signal peptide (residues 1-27); The chain is split between residues 184 and 185 into LgBiT and the 11-residue HiBiT peptide (residues 185-195); C-terminal A196 is absent
Put plainly: biochemical.

T1 sequence (Q9GV45 other isoform, or with tags, fused parts or gaps with the stated changes): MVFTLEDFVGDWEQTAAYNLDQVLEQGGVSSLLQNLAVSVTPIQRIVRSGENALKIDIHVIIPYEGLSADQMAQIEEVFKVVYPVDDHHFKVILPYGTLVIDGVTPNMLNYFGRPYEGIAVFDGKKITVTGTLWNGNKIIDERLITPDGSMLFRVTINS

`Cc1ccc(S(=O)(=O)Nc2ccc(C)cc2C(=O)Nc2cc3ccccc3s2)cc1` [HL-0061, N-(benzo[b]thiophen-2-yl)-5-methyl-2-((4-methylphenyl)sulfonamido)benzamide]: the midpoint of inhibition, the IC50, lay at 29 nM. As for `Cc1ccc(S(=O)(=O)Nc2ccccc2C(=O)Nc2cc3ccccc3s2)cc1` [HL-0005, N-(benzo[b]thiophen-2-yl)-2-((4-methylphenyl)sulfonamido)benzamide], the figure is 3.9 nM; as for `Cc1cccc(S(=O)(=O)Nc2ccccc2C(=O)Nc2cc3ccccc3s2)c1` [HL-0041, N-(benzo[b]thiophen-2-yl)-2-((3-methylphenyl)sulfonamido)benzamide], 13 nM; as for `Cc1ccc(S(=O)(=O)Nc2ccccc2C(=O)Nc2sc3c(c2C#N)CCCC3)cc1` [JRW-1004, N-(3-cyano-4,5,6,7-tetrahydrobenzo[b]thiophen-2-yl)-2-((4-methylphenyl)sulfonamido)benzamide], 30 nM. With `Cc1ccc(S(=O)(=O)Nc2ccccc2C(=O)Nc2sc3c(c2C#N)CCC3)cc1` [JRW-0998, N-(3-cyano-5,6-dihydro-4H-cyclopenta[b]thiophen-2-yl)-2-((4-methylphenyl)sulfonamido)benzamide] the figure was 43 nM; with `CCOC(=O)c1cccc(NC(=O)c2ccccc2NS(=O)(=O)c2ccc(C)cc2)c1` [HL-0026, ethyl 3-(2-((4-methylphenyl)sulfonamido)benzamido)benzoate], 240 nM; with `Cc1ccc(NC(=O)c2ccccc2NS(=O)(=O)c2cccc(N)c2)cc1` [JRW-1255, 2-((3-aminophenyl)sulfonamido)-N-(p-tolyl)benzamide], 60 nM. For `Cc1ccc(NC(=O)c2cc(O)ccc2NS(=O)(=O)c2ccc(C)cc2)cc1` [JRW-1232, 5-hydroxy-2-((4-methylphenyl)sulfonamido)-N-(p-tolyl)benzamide], half-maximal inhibition (IC50) was put at 1000 nM. With `COc1ccc(S(=O)(=O)Nc2ccccc2C(=O)Nc2ccc(C)cc2)cc1` [JRW-1285, 2-((4-methoxyphenyl)sulfonamido)-N-(p-tolyl)benzamide] the figure was 360 nM; with `Cc1ccc(NC(=O)c2ccccc2NS(=O)(=O)c2cccc(CCCO)c2)cc1` [JRW-1275, 2-((3-(3-hydroxypropyl)phenyl)sulfonamido)-N-(p-tolyl)benzamide], 340 nM.

Regarding `Cc1ccc(S(=O)(=O)Nc2ccccc2C(=O)Nc2ccc(CCCCBr)cc2)cc1` [JRW-1152, N-(4-(4-bromobutyl)phenyl)-2-((4-methylphenyl)sulfonamido)benzamide], half-maximal inhibition (IC50) was put at 120 nM. As for `Cc1ccc(S(=O)(=O)Nc2ccccc2C(=O)Nc2ccc(CCCCO)cc2)cc1` [JRW-1150, N-(4-(4-hydroxybutyl)phenyl)-2-((4-methylphenyl)sulfonamido)benzamide], the figure is 19000 nM. With `Cc1ccc(NC(=O)c2ccccc2NS(=O)(=O)c2cccc(O)c2)cc1` [JRW-1236, 2-((3-hydroxyphenyl)sulfonamido)-N-(p-tolyl)benzamide] the figure was 33 nM. With `COc1ccc(NC(=O)c2ccccc2NS(=O)(=O)c2ccc(C)cc2)cc1` [JRW-1300, N-(4-methoxyphenyl)-2-((4-methylphenyl)sulfonamido)benzamide] the figure was 43 nM. The molecule `Cc1ccc(S(=O)(=O)Nc2ccccc2C(=O)Nc2sccc2C#N)cc1` [JRW-1006, N-(3-cyanothiophen-2-yl)-2-((4-methylphenyl)sulfonamido)benzamide] yielded an IC50 of 1000 nM. With `Cc1ccc(NC(=O)c2ccccc2NS(=O)(=O)c2cccc(OC(F)(F)F)c2)cc1` [JRW-1328, N-(p-tolyl)-2-((3-(trifluoromethoxy)phenyl)sulfonamido)benzamide] the figure was 1100 nM; with `COC(=O)CCc1ccc(S(=O)(=O)Nc2ccccc2C(=O)Nc2cc3ccccc3s2)cc1` [HL-0040, methyl 3-(4-(N-(2-(benzo[b]thiophen-2-ylcarbamoyl)phenyl)sulfamoyl)phenyl)propanoate], 430 nM; with `COc1cccc(S(=O)(=O)Nc2ccccc2C(=O)Nc2ccc(C)cc2)c1` [JRW-1205, 2-((3-methoxyphenyl)sulfonamido)-N-(p-tolyl)benzamide], 29 nM.

`CCCCCCc1ccc(NC(=O)c2ccccc2NS(=O)(=O)c2ccc(C)cc2)cc1` [JRW-1090, N-(4-hexylphenyl)-2-((4-methylphenyl)sulfonamido)benzamide] came in with a half-maximal inhibitory concentration (IC50) of 1100 nM. With `Cc1ccc(S(=O)(=O)Nc2ccccc2C(=O)Nc2cccc(Br)c2)cc1` [JRW-1283, N-(3-bromophenyl)-2-((4-methylphenyl)sulfonamido)benzamide] the figure was 46 nM; with `Cc1ccc(S(=O)(=O)Nc2ccccc2C(=O)N[C@H]2CC[C@H](C(=O)O)CC2)cc1` [HL-0012, trans-4-(2-((4-methylphenyl)sulfonamido)benzamido)cyclohexane-1-carboxylic acid], 490 nM. In the case of `COc1cccc(NC(=O)c2ccccc2NS(=O)(=O)c2ccc(C)cc2)c1` [JRW-1299, N-(3-methoxyphenyl)-2-((4-methylphenyl)sulfonamido)benzamide], the concentration for half-maximal inhibition (IC50) is 90 nM. In the case of `Cc1ccc(S(=O)(=O)Nc2cc3ccccc3cc2C(=O)Nc2cc3ccccc3s2)cc1` [HL-0057, N-(benzo[b]thiophen-2-yl)-3-((4-methylphenyl)sulfonamido)-2-naphthamide], the IC50 amounted to 55 nM. As for `Cc1ccc(NC(=O)c2ccccc2NS(=O)(=O)c2cccc(C#CCO)c2)cc1` [JRW-1272, 2-((3-(3-hydroxyprop-1-yn-1-yl)phenyl)sulfonamido)-N-(p-tolyl)benzamide], the figure is 700 nM.

In the case of `Cc1ccc(S(=O)(=O)Nc2ccccc2C(=O)NC2CCCCC2)cc1` [HL-0006, N-cyclohexyl-2-((4-methylphenyl)sulfonamido)benzamide], the IC50 came out at 210 nM.

With `Cc1ccc(NC(=O)c2ccccc2NS(=O)(=O)c2ccc(C(F)(F)F)cc2)cc1` [JRW-1284, N-(p-tolyl)-2-((4-(trifluoromethyl)phenyl)sulfonamido)benzamide], half-maximal inhibition (IC50) was put at 710 nM. As for `CCCCc1ccc(S(=O)(=O)Nc2ccccc2C(=O)Nc2cc3ccccc3s2)cc1` [JRW-1114, N-(benzo[b]thiophen-2-yl)-2-((4-butylphenyl)sulfonamido)benzamide], the figure is 170 nM.

In the case of `COc1ccc(NS(=O)(=O)c2ccc(C)cc2)c(C(=O)Nc2ccc(C)cc2)c1` [JRW-1166, 5-methoxy-2-((4-methylphenyl)sulfonamido)-N-(p-tolyl)benzamide], inhibition was half-maximal at 130 nM (IC50). As for `COC(=O)c1cccc(S(=O)(=O)Nc2ccccc2C(=O)Nc2ccc(C)cc2)c1` [JRW-1250, methyl 3-(N-(2-(p-tolylcarbamoyl)phenyl)sulfamoyl)benzoate], the figure is 540 nM; as for `Cc1ccc(NC(=O)c2ccccc2NS(=O)(=O)c2cccc(-c3ccccc3)c2)cc1` [JRW-1248, 2-([1,1′-biphenyl]-3-sulfonamido)-N-(p-tolyl)benzamide], 280 nM. With `COc1ccc(NS(=O)(=O)c2ccc(C)cc2)c(C(=O)Nc2cc3ccccc3s2)c1` [JRW-1167, N-(benzo[b]thiophen-2-yl)-5-methoxy-2-((4-methylphenyl)sulfonamido)benzamide] the figure was 20 nM; with `COc1ccc(C(=O)Nc2cc3ccccc3s2)c(NS(=O)(=O)c2ccc(C)cc2)c1` [JRW-1203, N-(benzo[b]thiophen-2-yl)-4-methoxy-2-((4-methylphenyl)sulfonamido)benzamide], 100 nM. As for `Cc1ccc(S(=O)(=O)Nc2cc(F)ccc2C(=O)Nc2cc3ccccc3s2)cc1` [JRW-1346, N-(benzo[b]thiophen-2-yl)-4-fluoro-2-((4-methylphenyl)sulfonamido)benzamide], the figure is 14 nM.

Consider `CC(=O)Nc1cccc(S(=O)(=O)Nc2ccccc2C(=O)Nc2ccc(C)cc2)c1` [JRW-1253, 2-((3-acetamidophenyl)sulfonamido)-N-(p-tolyl)benzamide], for which the IC50 came out at 2300 nM. As for `Cc1ccc(S(=O)(=O)Nc2ccccc2C(=O)Nc2ccc3ccccc3c2)cc1` [HL-0007, 2-((4-methylphenyl)sulfonamido)-N-(naphthalen-2-yl)benzamide], the figure is 14 nM; as for `CCCCc1ccc(NC(=O)c2ccccc2NS(=O)(=O)c2ccc(C)cc2)cc1` [JRW-1076, N-(4-butylphenyl)-2-((4-methylphenyl)sulfonamido)benzamide], 26 nM; as for `N#Cc1c(NC(=O)c2ccccc2NS(=O)(=O)c2ccccc2)sc2c1CCC2` [HL-0010, N-(3-cyano-5,6-dihydro-4H-cyclopenta[b]thiophen-2-yl)-2-(phenylsulfonamido)benzamide], 22 nM. As for `Cc1ccc(S(=O)(=O)Nc2ccccc2C(=O)Nc2cccc(C(C)C)c2)cc1` [HL-0025, N-(3-isopropylphenyl)-2-((4-methylphenyl)sulfonamido)benzamide], the figure is 85 nM; as for `O=Cc1ccc(S(=O)(=O)Nc2ccccc2C(=O)Nc2cc3ccccc3s2)cc1` [HL-0038, N-(benzo[b]thiophen-2-yl)-2-((4-formylphenyl)sulfonamido)benzamide], 44 nM; as for `COc1cccc(S(=O)(=O)Nc2ccccc2C(=O)Nc2cc3ccccc3s2)c1` [JRW-1230, N-(benzo[b]thiophen-2-yl)-2-((3-methoxyphenyl)sulfonamido)benzamide], 7.8 nM. As for `Cc1ccc(NC(=O)c2ccccc2NS(=O)(=O)c2cccc(Br)c2)cc1` [JRW-1267, 2-((3-bromophenyl)sulfonamido)-N-(p-tolyl)benzamide], the figure is 36 nM; as for `Cc1ccc(S(=O)(=O)Nc2ccccc2C(=O)Nc2ccccc2Br)cc1` [JRW-1282, N-(2-bromophenyl)-2-((4-methylphenyl)sulfonamido)benzamide], 200 nM.

As usually defined, the IC50 is the concentration that inhibits the measured activity by half. Low values mean higher potency, high ones lower potency.
